≈ marks a conversion by molar mass, not a printed value.
What was measured:
[1] = system: G93A cells (VSC 4.1, mutant human Cu/Zn SOD-1); test: DAPI staining to evaluate apoptosis by GSNO; type: cell-based; details: 500 μM GSNO, 24 h
Experimental: (§1) DAPI staining to evaluate apoptosis by GSNO and its results; 4′,6-Diamidino-2-phenylindole dihydrochloride (DAPI) staining was performed to evaluate apoptosis as follows. After differentiation, the wildtype (control), G93A, and A4V cells were incubated with without 500 μM GSNO for 24 h; the cells were then centrifuged at 265 g for 2 min, and 4% neutral buffered formalin (100 μL) was added to the cell pellet. A 50 μL aliquot of the cell suspension was applied to a glass slide and dried at room temperature. The fixed cells were washed in PBS, air dried, and stained for 20 min with the DNA-specific fluorochrome, DAPI (Sigma, Saint Louis, Mo., USA). The adhered cells were rinsed with PBS, air dried, and mounted with 90% glycerol. The slides were observed under Olympus fluorescence microscopy(pictures).

[2] = system: A4V cells (VSC 4.1, mutant human Cu/Zn SOD-1); test: DAPI staining to evaluate apoptosis by GSNO; type: cell-based; details: 500 μM GSNO, 24 h
Experimental: as §1

[3] = system: wild type cells (VSC 4.1, wild type human Cu/Zn SOD-1); test: DAPI staining to evaluate apoptosis by GSNO; type: cell-based; details: 500 μM GSNO, 24 h
Experimental: as §1

in vitro = details: rat/mouse hybrid
Experimental: To evaluate the anti-apoptotic effect of solubilized UDCA against GSNO on wild type cells and cells containing G93A and A4V mutations in hSOD1, wildtype cells, G93A cells, and A4V cells were incubated with 500 μM GSNO for 24 h in order to induce apoptosis and then cell viability of was determined. These apoptosis-induced wildtype cells, G93A cells, and A4V cells were next incubated with 20 μM of solubilized UDCA for 24 h and cell viability was determined again using both the MTT assay and Trypan blue staining.
Cell culture: VSC 4.1. […]
MTT assay and trypan blue staining to evaluate the anti-apoptotic effects of solubilized UDCA and its results; 3-(4,5-dimethylthiazol-2-yl)-2,5-diphenyltetrazolium bromide (MTT) is absorbed into cells and converted to formazan by the action of mitochondrial succinate dehydrogenase. […] Finally, optical density (OD) was read at 540 nm on the ELISA plate reader after particles in the well were dissolved by a microplate mixer for 10 min. Results were calibrated using OD measured without cell culture. […] Unstained live cells were counted on a haemocytometer. Cell viability was expressed as percentages of the cell survival.

[4] = protonated form; cited from earlier work
[5] = oral administration; cited from earlier work

SMILES	percent of apoptotic cells [1] [%]	percent of apoptotic cells [2] [%]	percent of apoptotic cells [3] [%]	viability at 24 h, 500 μM (in vitro) [%]	solubility [4]	fraction of an ingested dose absorbed in the colon [5] [%]
N[C@@H](CCC(=O)N[C@@H](CSN=O)C(=O)NCC(=O)O)C(=O)O [GSNO, S-nitrosoglutathione]	19	25	8	81		
C[C@H](CCC(=O)NCCS(=O)(=O)O)[C@H]1CC[C@H]2[C@@H]3[C@@H](O)C[C@@H]4C[C@H](O)CC[C@]4(C)[C@H]3CC[C@]12C [TUDCA, tauroursodeoxycholic acid]					450 µM (≈ 225 µg/mL)	
C[C@H](CCC(=O)O)[C@H]1CC[C@H]2[C@@H]3[C@@H](O)C[C@@H]4C[C@H](O)CC[C@]4(C)[C@H]3CC[C@]12C [UDCA, Ursodeoxycholic acid]					about 0.05 mM	20

Reference: US20060142241A1, “Methods and compositions for reducing neurodegeneration in amyotrophic lateral sclerosis” (priority 2004, published 2006)
